The results in this text go back to ChEMBL document CHEMBL1149319, “Phe-Gly dipeptidomimetics designed for the di-/tripeptide transporters PEPT1 and PEPT2: synthesis and biological investigations” (J Med Chem, 2004).

pIC50, pKi: −log10 of the molar value. Peptide text beside a SMILES is read from it.

In assay [1] the target is T1, Solute carrier family 15 member 1 (Homo sapiens, UniProt P46059).
T1 sequence (P46059 whole entry): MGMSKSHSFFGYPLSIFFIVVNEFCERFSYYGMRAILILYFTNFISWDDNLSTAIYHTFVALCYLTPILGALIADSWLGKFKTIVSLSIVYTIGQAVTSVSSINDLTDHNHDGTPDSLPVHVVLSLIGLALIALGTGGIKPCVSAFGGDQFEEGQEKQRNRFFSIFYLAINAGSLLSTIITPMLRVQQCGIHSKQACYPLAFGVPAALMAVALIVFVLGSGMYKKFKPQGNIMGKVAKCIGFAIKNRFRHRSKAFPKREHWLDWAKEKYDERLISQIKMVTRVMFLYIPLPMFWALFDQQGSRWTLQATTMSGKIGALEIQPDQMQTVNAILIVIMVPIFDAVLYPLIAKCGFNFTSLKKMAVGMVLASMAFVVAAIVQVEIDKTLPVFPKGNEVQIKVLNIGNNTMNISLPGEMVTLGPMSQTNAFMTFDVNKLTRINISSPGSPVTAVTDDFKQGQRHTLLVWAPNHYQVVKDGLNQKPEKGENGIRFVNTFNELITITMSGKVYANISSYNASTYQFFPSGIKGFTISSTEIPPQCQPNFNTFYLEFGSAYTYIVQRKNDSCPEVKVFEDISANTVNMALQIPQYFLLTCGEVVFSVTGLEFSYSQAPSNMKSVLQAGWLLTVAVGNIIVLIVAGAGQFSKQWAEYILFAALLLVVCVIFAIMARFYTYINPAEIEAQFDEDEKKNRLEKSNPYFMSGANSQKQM
In words: Affinity fo the compound against human Intestinal peptide transporter PepT1 in Caco-2 cells was measured as inhibition of [14C]Gly-Sar uptake. The class given is cell-based.

Assay [2] addresses T1, Solute carrier family 15 member 1. In words: Concentration required to inhibit the maximum [14C]Gly-Sar uptake by human Intestinal peptide transporter PepT1 in Caco-2 cells. It is filed as cell-based.
Assay [3] in a line: Affinity against Renal peptide transporter PepT2 in SKPT cells was measured by the inhibition of [14C]Gly-Sar uptake. The class given is cell-based, Rattus norvegicus.
Assay [4] can be described thus: Concentration required to inhibit the maximum [14C]Gly-Sar uptake by Renal peptide transporter PepT2 in SKPT cells. The class given is cell-based. As to conditions: Rattus norvegicus.

Regarding `N[C@@H](Cc1ccccc1)C(=O)CCC(=O)O`, the pKi is 3.40 in assay [1] and 4.73 in assay [3]. The pIC50 in assay [2] is 3.40; in assay [4], 4.65.

Consider `N[C@@H](Cc1ccccc1)[C@H](O)/C=C/C(=O)O`, for which the figures for the pKi in assay [1] and in assay [3] were 1.58 and 2.46, respectively. Further, the pIC50 in assay [2] is 1.57; in assay [4], 2.39.

With `N[C@@H](Cc1ccccc1)[C@@H](O)CCC(=O)O`, the pKi in assay [3] is 2.16. Further, the negative-log IC50 (pIC50) in assay [4] is 2.09.

Consider `N[C@@H](Cc1ccccc1)[C@H](O)CCC(=O)O`, for which the pKi in assay [3] is 2.13. Besides, in assay [4], the pIC50 was 2.06.

For `N[C@@H](Cc1ccccc1)[C@@H](O)/C=C/C(=O)O`, the pKi in assay [1] was 1.40; in assay [3], 2.87. For the same compound, the figures for the pIC50 in assay [2] and in assay [4] were 1.39 and 2.80, respectively.

`N[C@@H](Cc1ccccc1)C(=O)NCC(=O)O` (H-Phe-Gly-OH): the pKi in assay [1] was 3.70; in assay [3], 4.84. Also, the figures for the pIC50 in assay [2] and in assay [4] were 3.70 and 4.76, respectively.

The compound `CC1=C(C(=O)O)N2C(=O)[C@@H](NC(=O)[C@H](N)c3ccccc3)[C@H]2SC1` [CEPHALEXIN ANHYDROUS] gave a pKi in assay [3] of 4.45. In assay [4], this compound had a pIC50 of 4.38.
